# Key:
# Type in all cases: in vivo
# [1] = tested on: nutsedge, yellow (yellow nutsedge, Cyperus esculentus); experiment: Test C pre-/postemergence: nutsedge, yellow; conditions: Postemergence
# How it was run: (§1)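 Preemergence on seeds in loam/sand, postemergence on 2–18 cm (1–4-leaf) plants in peat-based medium; compounds in non-phytotoxic solvent with surfactant. After 13–15 days in greenhouse, visual rating versus controls, 0 (no effect) to 100 (complete control).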
# [2] = tested on: foxtail, giant (giant foxtail, Setaria faberii); experiment: Test C pre-/postemergence: foxtail, giant; conditions: Postemergence
# How it was run: as §1
# [3] = tested on: velvetleaf (Abutilon theophrasti); experiment: Test A pre-/postemergence: velvetleaf; conditions: 1000 g ai/ha
# How it was run: (§2)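 Soil medium was loam blended with sand; treatments pre- and postemergence were applied concurrently, postemergence at one- to two-leaf stage. Approximately ten days in greenhouse preceded visual comparison with untreated controls, scored 0 (no effect) to 100 (complete control).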
# [4] = tested on: blackgrass (Alopecurus myosuroides); experiment: Test C pre-/postemergence: blackgrass; conditions: Postemergence
# How it was run: as §1
# [5] = tested on: winter wheat (Triticum aestivum); experiment: Test C pre-/postemergence: winter wheat; conditions: Postemergence
# How it was run: as §1
# [6] = tested on: crabgrass, large (large crabgrass, Digitaria sanguinalis); experiment: Test A pre-/postemergence: crabgrass, large; conditions: 1000 g ai/ha
# How it was run: as §2
# [7] = tested on: foxtail, giant (giant foxtail, Setaria faberii); experiment: Test A pre-/postemergence: foxtail, giant; conditions: 1000 g ai/ha
# How it was run: as §2
# [8] = tested on: lambsquarters (Chenopodium album); experiment: Test C pre-/postemergence: lambsquarters; conditions: Postemergence
# How it was run: as §1
# soybean (Glycine max) = experiment: Test C pre-/postemergence: soybean; conditions: Postemergence
# How it was run: as §1
# [9] = tested on: pigweed (Amaranthus retroflexus); experiment: Test C pre-/postemergence: pigweed; conditions: Postemergence
# How it was run: as §1
# [10] = tested on: velvetleaf (Abutilon theophrasti); experiment: Test C pre-/postemergence: velvetleaf; conditions: Postemergence
# How it was run: as §1
# [11] = tested on: galium (catchweed bedstraw, Galium aparine); experiment: Test C pre-/postemergence: galium; conditions: Postemergence
# How it was run: as §1
# [12] = 16 g ai/ha, scale 0 to 100, 0 no effect, 100 complete control
# [13] = 31 g ai/ha, scale 0 to 100 (0 no effect, 100 complete control)
# [14] = 62 g ai/ha, scale 0 to 100 (0 no effect, 100 complete control)
# [15] = 125 g ai/ha, scale 0 to 100, 0 no effect, 100 complete control
# [16] = Postemergence, visual rating on 0 to 100 scale (0 no effect, 100 complete control), approximately ten days
# [17] = Preemergence, 0 to 100 scale, 0 is no effect, 100 is complete control
structure (smiles),measurement,setting,value
Cc1nn(-c2ccc(C(F)(F)F)cc2)nc1Cc1cccc(C(F)(F)F)c1 [Compound 124],"Plant response rating, Nutsedge, Yellow",[1]; [12],0
same,"Plant response rating, Nutsedge, Yellow",[1]; [13],0
same,"Plant response rating, Nutsedge, Yellow",[1]; [14],0
same,"Plant response rating, Nutsedge, Yellow",[1]; [15],0
same,"Plant response rating, Foxtail, Giant",[2]; [12],15
same,"Plant response rating, Foxtail, Giant",[2]; [13],15
same,"Plant response rating, Foxtail, Giant",[2]; [14],25
same,"Plant response rating, Foxtail, Giant",[2]; [15],45
same,Velvetleaf plant response rating,[3]; [16],100
same,Velvetleaf plant response rating,[3]; [17],80
same,"Plant response rating, Blackgrass",[4]; [12],0
same,"Plant response rating, Blackgrass",[4]; [13],35
same,"Plant response rating, Blackgrass",[4]; [14],50
same,"Plant response rating, Blackgrass",[4]; [15],85
same,"Plant response rating, Wheat",[5]; [12],5
same,"Plant response rating, Wheat",[5]; [13],10
same,"Plant response rating, Wheat",[5]; [14],15
same,"Plant response rating, Wheat",[5]; [15],20
same,"Crabgrass, Large plant response rating",[6]; [16],90
same,"Crabgrass, Large plant response rating",[6]; [17],100
same,"Foxtail, Giant plant response rating",[7]; [16],90
same,"Foxtail, Giant plant response rating",[7]; [17],100
same,"Plant response rating, Lambsquarters",[8]; [12],85
same,"Plant response rating, Lambsquarters",[8]; [13],95
same,"Plant response rating, Lambsquarters",[8]; [14],98
same,"Plant response rating, Lambsquarters",[8]; [15],98
same,"Plant response rating, Soybean",soybean (Glycine max); [12],45
same,"Plant response rating, Soybean",soybean (Glycine max); [13],55
same,"Plant response rating, Soybean",soybean (Glycine max); [14],55
same,"Plant response rating, Soybean",soybean (Glycine max); [15],60
same,"Plant response rating, Pigweed",[9]; [12],75
same,"Plant response rating, Pigweed",[9]; [13],90
same,"Plant response rating, Pigweed",[9]; [14],95
same,"Plant response rating, Pigweed",[9]; [15],98
same,"Plant response rating, Velvetleaf",[10]; [12],45
same,"Plant response rating, Velvetleaf",[10]; [13],45
same,"Plant response rating, Velvetleaf",[10]; [14],50
same,"Plant response rating, Velvetleaf",[10]; [15],55
same,"Plant response rating, Galium",[11]; [12],70
same,"Plant response rating, Galium",[11]; [13],70
same,"Plant response rating, Galium",[11]; [14],80
same,"Plant response rating, Galium",[11]; [15],85
